Experimental data taken from patent US9259487B2, “Transgenic non-human animal model of neurodegenerative disease” (Nagasaki University, priority 2011, dated 2016).

Experiments:
Type in all cases: in vivo, mouse
GgFF mice [1] = assay: Rotarod dwelling time (30 rpm, 40 rpm) of aged mice deficient in prothymosin α in striatum
GgFF mice [2] = assay: Survival ratio after 15-min transient middle cerebral artery occlusion (tMCAO); settings: 8- to 16-week-old GgFF mice, administration group
GgFF mice [3] = assay: Rotarod dwelling time (motility function) after 15-min tMCAO; settings: 8- to 16-week-old GgFF mice, selegiline 10 mg/kg intraperitoneally after 15-min tMCAO, 6 rpm and 12 rpm
GgFF mice [4] = assay: Clasping reflex score of aged mice deficient in prothymosin α in striatum
GgFF mice [5] = assay: Clinical score (motility dysfunction) after 15-min tMCAO; settings: 8- to 16-week-old GgFF mice, selegiline 10 mg/kg intraperitoneally after 15-min tMCAO

In the case of `Cl.Oc1cc2c(cc1O)C(c1ccccc1)CNCC2` (racemic) [SKF38393, (±)-1-phenyl-2,3,4,5-tetrahydro-1H-3-benzazepine-7,8-diol HCl], the “motility dysfunction in the Rotarod test” value (GgFF mice [1]; 20- to 30-week-old GgFF mice, 5 hr after intraperitoneal administration of 30 mg/kg, 30 rpm, vs vehicle) is reported as “significantly improved”.

`C#CCN(C)[C@H](C)Cc1ccccc1` [selegiline] was tested, and the survival ratio (GgFF mice [2]; selegiline 10 mg/kg intraperitoneally after 15-min tMCAO) was “markedly-improved”, the “dwelling time on the Rotarod vs before administration, acute (within 24 hr)” value (GgFF mice [1]; aged GgFF mice, selegiline 10 mg/kg intraperitoneally, 30 rpm and 40 rpm) was “tended to be long” and the “motility function (dwelling time on Rotarod, Latency to fall) vs non-administration group” value (GgFF mice [3]) was “improved motility function”. The “clasping scores vs before administration, acute (within 24 hr)” value (GgFF mice [4]; selegiline 10 mg/kg intraperitoneally) was “tended to improve” and the “motility dysfunction (Clinical score)” value (GgFF mice [5]) was “remarkably improved”.

With `CCCN[C@H]1CCc2nc(N)sc2C1` [pramipexole] the survival ratio (GgFF mice [2]; pramipexole 0.01 mg/kg intraperitoneally after 15-min tMCAO) was 75%.

`CC12CC3CC(C)(C1)CC(N)(C3)C2` [memantine] was tested, and the “symptom (motility function by Rotarod), chronic administration” value (GgFF mice [1]; aged GgFF mice, memantine 10 mg/kg intraperitoneally every day from Day 1 to Day 7, 30 rpm and 40 rpm) was “remarkable recovery”, the “motility function, acute (within 24 hr)” value (GgFF mice [1]; aged GgFF mice, memantine 10 mg/kg intraperitoneally, 24 hr after the administration) was “most recovered” and the “symptom (clasping scores), chronic administration” value (GgFF mice [4]; memantine 10 mg/kg intraperitoneally every day from Day 1 to Day 7) was “remarkable recovery”.
